Patent US8558056B2, “LysM receptor-like kinases to improve plant defense response against fungal pathogens” (The Curators of the University of Missouri, priority 2006, dated 2013)

Columns and labels:
[1] = system: selected CRGs (MPK3, WRKY22, WRKY29, WRKY33, WRKY53); experiment: Semi-quantitative RT-PCR of selected CRGs after chitooctaose; assay type: in vivo, Arabidopsis thaliana; settings: chitooctaose or water for 30 minutes; mutant vs wild type
Procedure: To test whether non-leguminous LysM RLKs may be involved in the perception of chitooligosaccharides and the subsequent induction of downstream genes that have been implicated in fungal defense, T-DNA insertion mutants were obtained for all five LysM RLK genes (i.e., At1g51940, At2g23770, At2g33580, At3g01840, and At3g21630) in Arabidopsis. The gene At3g21630 (SEQ ID. No. 3) is also termed AtLYK1 or AtLysM RLK1. Homozygous mutants were then treated with a purified chitooligosaccharide (chitooctaose) and the expression levels of known CRGs, such as MPK3 (At3g45640, SEQ ID. No. 8), WRKY22 (At4g01250, SEQ ID. No. 9), WRKY29 (At4g23550, SEQ ID. No. 10), WRKY33 (At2g38470, SEQ ID. No. 11), and WRKY53 (At4g23810, SEQ ID. No. 12), were measured.
More particularly, Arabidopsis seedlings were grown hydroponically as described by Ramonell et al., 2005. […]
Total RNA was isolated using the Trizol Reagent according to the manufacturer's instructions (Invitrogen, Carlsbad, Calif.). […] For semi-quantitative RT-PCR or quantitative 17 PCR, cDNA was synthesized using M-MLV reverse transcriptase according to the manufacturer's instructions (Promega, Madison, Wis., USA). […]
Both the mutant (Mu) and wildtype (WT) plants were treated with purified chitooctaose or water (as a control) for 30 minutes and gene expression of the selected CRGs was detected using semi-quantitative RT-PCR. […]

[2] = system: wild-type Col-0 gene expression (chitooligosaccharide-responsive genes, CRGs); experiment: Affymetrix ATH1 whole genome array, response to chitooctaose in wild-type plants; assay type: in vivo, Arabidopsis thaliana
Procedure: (§1) More particularly, Arabidopsis seedlings were grown hydroponically as described by Ramonell et al., 2005. Fourteen-day old seedlings were treated with chitooctaose (Sigma, St. Louis, Mo., USA) at a concentration of 1 μM or with distilled water (as a control) for 30 minutes. To test flagellin-responsive genes, 14-day old seedlings were also treated with the flagellinderived flg22 peptide (dissolved in dimethyl sulfoxide, DMSO) at a final concentration of 10 μM or with an equivalent amount of DMSO (as a control) for 30 minutes. To test other defense pathways, Arabidopsis seedlings were also treated for 24 hours with 5 mM SA, 100 μM MeJA, and 0.5 mM ACC (all obtained from Sigma, St. Louis, Mo., USA) and dissolved in 0.1% ethanol. The control plants were similarly treated with an equivalent amount of ethanol. After treatment, the seedlings were collected and frozen in liquid nitrogen for RNA isolation.
(§2) Total RNA was isolated using the Trizol Reagent according to the manufacturer's instructions (Invitrogen, Carlsbad, Calif.). The isolated RNA was further purified using Qiagen RNeasy Mini Columns according to the manufacturer's instruction (Qiagen, Valencia, Calif., USA) and treated with Turbo™ DNase (Ambion, Austin, Tex., USA). For semi-quantitative RT-PCR or quantitative 17 PCR, cDNA was synthesized using M-MLV reverse transcriptase according to the manufacturer's instructions (Promega, Madison, Wis., USA).
(§3) Gene expression profiles in the AtLysM RLK1 mutant in response to chitooctaose were studied using the Affymetrix Arabidopsis Whole Genome Array ATH1 (with ˜22000 genes), with wild-type plants as a control. […] A row represents a gene and each column represents a sample. WT-8mer=wild-type Col-0 treated with chitooctaose; WT-water=wild-type Col-0 treated with distilled water; Mu-water=the AtLysM RLK1 mutant treated with distilled water; Mu-8mer=the AtLysM RLK1 mutant treated with chitooctaose. The color bar below the cluster picture: the red color indicates the expression level of a gene is above the mean expression of the gene across all samples; the green color indicates expression lower than the mean.

[3] = system: AtLysM RLK1 mutant gene expression (chitooligosaccharide-responsive genes, CRGs); experiment: Affymetrix ATH1 whole genome array, response to chitooctaose in the AtLysM RLK1 mutant; assay type: in vivo, Arabidopsis thaliana
Procedure: as §1, §2
The AtLysM RLK1 insertion mutant (096F09) used in the current work was generated in the context of the GABI-Kat program and provided by Bernd Weisshaar (MPI for Plant Breeding Research, Cologne, Germany). See Shibuya et al., 2001. The homozygous plants were identified by genotyping using the following gene-specific primers: […]
as §3

[4] = system: selected CRGs (LjMPK3, LjWRKY22, LjWRKY33, LjWRKY53); experiment: Semi-quantitative RT-PCR of selected CRGs in Lotus japonicus Nod signal receptor mutants; assay type: in vivo; settings: chitooctaose 1 μM, 30 minutes; wild type Gifu as comparison
Procedure: PCR reactions were conducted using Taq polymerase (Promega, Madison, Wis., USA) under the following conditions: 94° C., 3 minutes; 94° C., 30 seconds; 55° C., 30 seconds; 72° C., 1.5 minutes; 25 cycles; 72° C., 3 minutes. The corresponding CRG genes in Lotus japonicus were identified by blasting the cDNA sequences of the above Arabidopsis CRGs (and also actin-2) against the TIGR Lotus japonicus Gene Index. The closest hits were chosen and arbitrarily named after their Arabidopsis counterparts with the prefix Lj (standing for Lotus japonicus). The following primer pairs were designed to detect these genes:
LjActin-2 was used as an internal control.
LysM RLK NFR1 and NFR5 Nod signal receptors specifically recognize a lipochitin molecule with a back-bone of 4-5 units of N-acetyl-D-glucosamine. For review, see Stacey et al. 2006. […] In more details, both the wild type (Gifu) and the Nod signal receptor mutants nfr1-1 and nfr5-1 were treated with chitooctaose for 30 minutes at a concentration of 1 μM or with water (as a control). The selected CRGS were detected using semi-quantitative RT-PCR. LjActin-2 was used as an internal control.

transcription factors = experiment: qRT-PCR of transcription factors after chitin treatment; design: species or system Arabidopsis thaliana; settings: in vivo
Procedure: Based on the genome-wide gene expression studies using microarrays, quantitative reverse transcriptase-polymerase chain reaction (qRT-PCR) was conducted to identify over 120 different transcription factors in Arabidopsis thaliana whose expression is enhanced by chitin treatment. Many of these transcription factors are known to be involved in fungal pathogen response. […] Each of these transcription factors is a potential target for genetic manipulation in order to enhance disease resistance. The results of this study are described in greater details in Libault et al., 2007, which is hereby expressly incorporated by reference.

[5] = system: Arabidopsis LysM RLK genes; experiment: DNA microarray (Affymetrix 24K chip) of plants sprayed with chitin; assay type: in vivo, Arabidopsis thaliana; settings: leaves sprayed with chitin (100 μM)+0.2% Tween-20
Procedure: A total of five LysM receptor-like kinase genes were identified in Arabidopsis from the studies described in Example 1. The Genbank numbers of these five genes are AtLYK1 (GenBank accession #At3g21630), AtLYK2 (GenBank accession # At3g01840), AtLYK3 (GenBank accession #At1g51940), AtLYK4 (GenBank accession # At2g23770), AtLYK5 (GenBank accession #At2g33580), and, which are designated as SEQ ID. Nos. 3-7, respectively. A DNA microarray experiment was performed by treating Arabidopsis plants with chitin. Leaves were treated by spraying with chitin (100 μM)+0.2% Tween-20. The Affymetrix 24K Arabidopsis genome chip was utilized according to the manufacturer's instructions for this test. […] The data implicate these genes in plant chitin response.

soybean LysM RLK genes = experiment: Expression analysis of GmLysM receptor-like kinases in chitin-treated leaves; assay type: in vivo; settings: leaves sprayed with chitin (100 μM)+0.2% Tween-20
Procedure: Soybean genotypes used for mapping of soybean QTLs for white mold resistance included Corsoy 79 and Dassel. […] Finally, as was the case with Arabidopsis, some of the soybean LysM RLK genes are induced upon treatment of soybean with chitin, as confirmed by the results shown in FIG. 20. Leaves were treated by spraying with chitin (100 μM)+0.2% Tween-20.

AtLysM RLK1 gene = experiment: RT-PCR of AtLysM RLK1 gene expression after elicitor treatment; assay type: in vivo, Arabidopsis thaliana; settings: seedlings, chitooctaose 1 μM, 30 minutes
Procedure: as §1
These two primers were also used to detect the expression of the AtLysM RLK1 gene via RT-PCR. The other primers used to detect the transcript 5′ of the insertion site were as follows:
The expression pattern of the AtLysM RLK1 gene was also studied. […]

[6] = system: Pseudomonas syringae pv. tomato DC3000; experiment: Pretreatment before inoculation with Pseudomonas syringae pv. tomato DC3000 (bacterial growth); assay type: in vivo, Arabidopsis thaliana
Text: (§4) To test the specificity of AtLysM RLK1 in fungal disease resistance, the response of the mutant to the bacterial pathogen Pseudomonas syringae pv. Tomato DC3000 was also examined. […] WT=wild-type Col-0; Mu=the AtLysM RLK1 mutant. CSC=crab shell chitin, 8mer=chitooctaose, and water=distilled water. Empty columns=WT Col-0 and solid black columns=the AtLysM RLK1 mutant. Asterisks indicate statistically significant differences between the mutant and wild-type plants (P<0.05). Error bars=standard error. Each experiment was repeated at least twice with similar results.

Alternaria brassicicola = experiment: Pretreatment before inoculation with Alternaria brassicicola (lesion size, spore production); assay type: in vivo, Arabidopsis thaliana
Text: The susceptibility appeared to be less than that observed in NahG plants, which express salicylate hydrolase, preventing the accumulation of salicylic acid, and are therefore very susceptible to the fungal pathogen (FIG. 13A). […] Arrows indicate sites where conidiophores are forming. All photographs were taken six days after inoculation. Bar=0.1 mm. 4-week-old plants were also inoculated with the necrotrophic fungus Alternaria brassicicola. Three days after inoculation, the mutant developed slightly bigger lesions than the wild-type plants, as measured by average diameter of the lesions (FIGS. 13C and 13D). In agreement with this, the mutant plants also produced more spores per lesion than the wild-type plants (FIG. 13E).
as §4

[7] = pretreatment of AtLysM RLK1 mutant plants
[8] = pretreatment of wild-type plants

Q: `CC(=O)N[C@H]1[C@H](O[C@H]2[C@H](O)[C@@H](NC(C)=O)[C@H](O[C@H]3[C@H](O)[C@@H](NC(C)=O)[C@H](O[C@H]4[C@H](O)[C@@H](NC(C)=O)C(O)O[C@@H]4CO)O[C@@H]3CO)O[C@@H]2CO)O[C@H](CO)[C@@H](O[C@@H]2O[C@H](CO)[C@@H](O[C@@H]3O[C@H](CO)[C@@H](O[C@@H]4O[C@H](CO)[C@@H](O[C@@H]5O[C@H](CO)[C@@H](O)[C@H](O)[C@H]5NC(C)=O)[C@H](O)[C@H]4NC(C)=O)[C@H](O)[C@H]3NC(C)=O)[C@H](O)[C@H]2NC(C)=O)[C@@H]1O` (some centres unmarked) [chitooctaose] was tested. Which “induction of the selected CRGs in the AtLysM RLK1 insertion mutant” value [1] did it give?
A: almost completely blocked the induction

Q: What about the “number of down-regulated genes in wild-type plants” value ([2]; 1.5 fold, P<0.05) of the same compound?
A: 227 genes

Q: And the “number of up-regulated genes in wild-type plants” value ([2]; 1.5 fold, P<0.05)?
A: 663 genes

Q: What about the “number of genes that responded more than 1.5 fold (P<0.05) to chitooctaose elicitation” value ([2]; in both the wild-type and mutant plants, 30 minutes after the treatment) of the same compound?
A: 909 genes

Q: And the “number of genes with a change in transcript levels in wild-type plants” value ([2]; out of the 909 genes, 1.5 fold, P<0.05)?
A: 890 genes

Q: What about the “number of down-regulated genes in the mutant” value ([3]; AtLysM RLK1 mutant) of the same compound?
A: 17 genes

Q: What about the “number of up-regulated genes in the mutant” value ([3]; AtLysM RLK1 mutant) of the same compound?
A: 16 genes

Q: And the “number of genes responsive in the mutant” value ([3]; out of 909, AtLysM RLK1 mutant)?
A: 33 genes

Q: And the “induction of the selected CRGs in L. japonicus nfr1-1 and nfr5-1 mutants” value [4]?
A: did not block the induction

Q: For chitin, which “number of transcription factors whose expression is enhanced by chitin treatment” value (transcription factors) is on record?
A: over 120 transcription factors

Q: And the “increase in transcription of At2g23770” value [5]?
A: 2 fold

Q: And the “increase in transcription of At2g33580” value [5]?
A: 13 fold

Q: What about the “increase in transcription of At3g21630” value [5] of the same compound?
A: 2 fold

Q: And the “induction of soybean LysM RLK genes” value (soybean LysM RLK genes)?
A: induced

Q: For chitooligosaccharides, which “induction of the AtLysM RLK1 gene” value (AtLysM RLK1 gene) is on record?
A: induced

Q: And the “resistance after pretreatment, P. syringae pv. tomato DC3000” value [6, 7]?
A: did not enhance resistance

Q: And the “growth of the bacterial pathogen P. syringae pv. tomato DC3000” value [6, 8]?
A: inhibited the growth

Q: And the “resistance after pretreatment, A. brassicicola” value (Alternaria brassicicola; [7])?
A: did not enhance resistance

Q: What about the “disease symptoms (lesion size and spore production) after A. brassicicola inoculation” value (Alternaria brassicicola; [8]) of the same compound?
A: reduced disease symptoms

Q: What about the “share of CRGs whose regulation is blocked by the AtLysM RLK1 mutation” value ([3]; AtLysM RLK1 mutant vs wild type) of the same compound?
A: ~98%
